Results reported in patent US20060160773A1, “Combretastatin derivatives with cytotoxic action” (priority 2003, published 2006).
Like-named read-outs stand apart in the source and are kept apart here. Marks after values point to notes of the source that are not given here.

What was measured:
[1] = test system: NCI-H460 human lung cancer; test: Cytotoxicity test (sulforodamine B), NCI-H460; assay type: cell-based
Protocol: (§1) The cytotoxic effect of our derivatives was evaluated in series of human and murine cell lines.
(§2) The following cell lines, purchased from ATCC, were cultured according to the manufacturer's instructions: MeWo human melanoma, NCI-H460 human lung cancer, LoVo human colon adenocarcinoma, PC3 human prostate carcinoma, MES-SA human uterine sarcoma, HCT 116 human colorectal carcinoma, MCF-7 human breast carcinoma.
(§3) For the cytotoxicity test the cells were seeded at variable densities according to cell type in 96-well plates in normal culture medium (200 μl/well) and incubated for 24 hours at 37° C. On the next day, the study substances were added at scalar concentrations and the cells were incubated for a further 24 hours at 37° C. in a humidified atmosphere containing 5% CO2. At the end of the incubation period the medium containing the substances was removed and three washings with PBS were performed. At the end of the washings 200 μl/well of fresh medium were added and the plates were incubated at 37° C. for a further 48 hours. At the end of this incubation period the culture medium was removed by overturning the plates and 200 μl/well of PBS and 50 μl of 80% cold trichloroacetic acid (TCA) were added. The plates were then incubated in ice. After 1 h the TCA was removed, the plates were washed three times by immersion in distilled water and dried first on blotting paper and then in the oven. 200 μl of 0.4% sulforodamine B in 1% acetic acid were then added to all wells. The plates were incubated at room temperature for a further 30 minutes. The sulforodamine B was removed by overturning, the plates were washed three times by immersion in 1% acetic acid, and then dried first on blotting paper and then in the oven. 200 μl of Tris base 10 mM were then added to all wells and the plates were placed under stirring for at least 20 min. The optical density was measured by spectrophotometric readout at 540 nm.
(§4) In the same table are reported the IC50 of ST2897, ST2898 and ST2899 on BMEC.

[2] = test system: human NCI-H460 lung cancer cells; test: Anticancer activity in animal model of human lung carcinoma (NCI-H460 s.c. in nude CD1 mice); assay type: in vivo
Protocol: The anticancer activity of ST2495 and ST2496 was assayed in an animal model of human lung carcinoma.
In this model, human NCI-H460 lung cancer cells at a density of 3×10^6 cells/mouse were injected subcutaneously in the right flank of nude CD1 mice. […]
All the animals were weighed during the course of the treatment to adjust the drug administration volume and to record the percentage loss of body weight (% BWL).
Tumour growth was assessed by measuring the shorter diameter (width) and the longer diameter (length) of each tumour twice a week with a Vernier caliper, and the anticancer activity was evaluated in terms of percentage inhibition of tumour growth. The tumour volume was calculated using the following formula: tumour volume (TV) in mm^3=[length (mm)×width (mm)^2]/2. The percentage inhibition (% TVI) was calculated according to the following equation: 100−[(mean tumour volume of the treated group/mean tumour volume of the control group)×100]. A value of P≦0.05 was regarded as statistically significant.

[3] = test system: MES-SA human uterine sarcoma; test: Cytotoxicity test (sulforodamine B), MES-SA; assay type: cell-based; conditions: read-out: IC50 ± SE
Protocol: as §1, §2, §3, §4

[4] = Evaluation of cardiovascular parameters (blood pressure, heart rate) in anaesthetised rats; assay type: in vivo; conditions: 20 or 40 mg/kg injected in the jugular vein, anaesthetised Wistar rats (FIG. 1)
Protocol: Combretastatin A4, its prodrug ST2494 and our water soluble selected compounds ST2495 and ST2496, diluted at the doses of 20 or 40 mg/kg in saline solution or for combretastatin A4 in 5% DMSO, were injected in the jugular vein of Wistar rats anaesthetised with 55 mg/kg Nembutal. The parameter considered were blood pressure and heart rate.

[5] = test system: A2780 human ovarian carcinoma line; test: Cytotoxicity test (sulforodamine B), A2780; assay type: cell-based
Protocol: as §1
(§5) The M109 murine lung cancer line, the HT29 human colon adenocarcinoma line, the A2780 human ovarian carcinoma line, obtained from the Milan Tumour Institute, were cultured in RPMI containing 10% FBS and antibiotics.
as §3, §4

[6] = test system: Bovine microcirculatory endothelial cells (BMEC); test: Cytotoxicity test (sulforodamine B), BMEC; assay type: cell-based; conditions: read-out: IC50 ± SE
Protocol: as §1
Bovine microcirculatory endothelial cells (BMEC), isolated from bovine adrenal glands, were maintained in culture in DMEM containing 20% FBS, 50 μg/ml of bovine brain extract (BBE), 50 units/ml of heparin (SIGMA), 100 units/ml of gentami-cin (SIGMA) and 10 mg/ml of L-glutamine (Hyclone). EA-hy926, an immortalised hybridoma of HUVEC and adenocarcinoma cells, obtained from the University of Bari Department of Biomedical Sciences and Human Oncology, was cultured in DMEM added with 10% FBS and gentamicin.
as §3, §4

MeWo human melanoma = test: Cytotoxicity test (sulforodamine B), MeWo; assay type: cell-based; conditions: read-out: IC50 ± SE
Protocol: as §1, §2, §3, §4

[7] = test system: Human umbilical vein endothelial cells (HUVEC); test: Cytotoxicity test (sulforodamine B), HUVEC; assay type: cell-based; conditions: read-out: IC50 ± SE
Protocol: as §1
Human umbilical vein endothelial cells (HUVEC), from the BioWhittaker company, were maintained in EGM-2 culture medium (BioWhittaker).
as §3, §4

[8] = test system: HT29 human colon adenocarcinoma line; test: Cytotoxicity test (sulforodamine B), HT29; assay type: cell-based
Protocol: as §1, §5, §3, §4

[9] = test system: HCT 116 human colorectal carcinoma; test: Cytotoxicity test (sulforodamine B), HCT 116; assay type: cell-based
Protocol: as §1, §2, §3, §4

[10] = test system: B16/BL6 murine melanoma line; test: Cytotoxicity test (sulforodamine B), B16/BL6; assay type: cell-based
Protocol: as §1
The B16/BL6 murine melanoma line, obtained from the M. Negri Institute in Milan, was cultured in DMEM containing 10% FBS and antibiotics.
as §3, §4

[11] = test system: MCF-7 human breast carcinoma; test: Cytotoxicity test (sulforodamine B), MCF-7; assay type: cell-based
Protocol: as §1, §2, §3, §4

[12] = i.v. 60 mg/kg, q2dx6, day 5 to day 17
[13] = i.v. 90 mg/kg, q2dx6, day 5 to day 17
[14] = p.o. 30 mg/kg, qdx5/w, day 4 to day 14
[15] = i.p. 30 mg/kg twice/day, qd5x/w, day 4 to day 22
[16] = i.p. 30 mg/kg, qd5x/w once a day, day 4 to day 22
[17] = i.v. 60 mg/kg, q2dx6, day 4 to day 16
[18] = i.v. 90 mg/kg, q2dx6, day 4 to day 16
[19] = p.o. 30 mg/kg twice/day, qd5x/w, day 4 to day 22
[20] = p.o. 60 mg/kg twice/day, qd5x/w, day 4 to day 22
[21] = 24 h exposure, 48 h recovery, SRB

Compound: COc1cc(/C=C\c2cc(OP(=O)(O)O)c3ccoc3c2)cc(OC)c1OC [ST2496, Disodium 6[(Z)-2-(3,4,5-trimethoxyphenyl)ethenyl]-1-benzo-furan-4-ol 4-O-phosphate]
- IC50 ([1]; Homo sapiens, NCI-H460, read-out: IC50 ± SE): 780 ± 3.4 nM
- % BWL [2, 12]: 1%
- Mortality [2, 12]: 0/8
- % TVI ([2]; i.v. 60 mg/kg, q2dx6 day 5 to 17, day 14 after tumor inoculation): 48** %
- % TVI ([2]; i.v. 60 mg/kg, q2dx6 day 5 to 17, day 21 after tumor inoculation): 53** %
- % BWL [2, 13]: 1%
- Mortality [2, 13]: 0/8
- % TVI ([2]; i.v. 90 mg/kg, q2dx6 day 5 to 17, day 14 after tumor inoculation): 57*** %
- % TVI ([2]; i.v. 90 mg/kg, q2dx6 day 5 to 17, day 21 after tumor inoculation): 56** %
- % TVI ([2]; p.o. 30 mg/kg, qdx5/w day 4 to 14, day 14 after tumor inoculation): 48* %
- % TVI ([2]; p.o. 30 mg/kg, qdx5/w day 4 to 14, day 21 after tumor inoculation): 46* %
- % BWL [2, 14]: 1%
- Mortality [2, 14]: 0/8
- IC50 ([3]; Homo sapiens, MES-SA): 500 ± 50 nM
- blood pressure [4]: did not show significant effect
- heart rate [4]: did not show significant effect
- IC50 ([5]; Homo sapiens, A2780, read-out: IC50 ± SE): 260 ± 6 nM
- IC50 ([6]; Bos taurus, Endothelial cell): 340 ± 16 nM
- IC50 (MeWo human melanoma; Homo sapiens): 820 ± 7.7 nM
- IC50 ([7]; Homo sapiens): 85 ± 1.2 nM
- IC50 ([8]; Homo sapiens, HT-29, read-out: IC50 ± SE): 3900 ± 70 nM
- IC50 ([9]; Homo sapiens, HCT-116, read-out: IC50 ± SE): 1680 ± 70 nM
- IC50 ([10]; Mus musculus, B16-BL6, read-out: IC50 ± SE): 4140 ± 490 nM
- IC50 ([11]; Homo sapiens, MCF7, read-out: IC50 ± SE): 646 ± 29 nM

Compound: COc1ccc(/C=C\c2cc(OC)c3ccoc3c2)cc1O [ST2897, Cis-2-Methoxy-5-[2-(4-methoxy-benzofuran-6-yl)-vinyl]-phenol]
- IC50 ([6]; Bos taurus, Endothelial cell): 35 ± 1.8 nM

Compound: COc1ccc(/C=C\c2cc(OC)c3occc3c2)cc1O [ST2898, Cis-2-Methoxy-5-[2-(7-methoxy-benzofuran-5-yl)-vinyl]-phenol]
- IC50 ([6]; Bos taurus, Endothelial cell): 35 ± 0.3 nM

Compound: COc1ccc(/C=C\c2cc(OC)c3ccsc3c2)cc1O [ST2899, Cis-2-Methoxy-5-[2-(4-methoxy-benzo[b]thiophen-6-yl)-vinyl]-phenol]
- IC50 ([6]; Bos taurus, Endothelial cell): < 40 nM

Compound: Disodium 6[(Z)-2-(3,4,5-trimethoxyphenyl)ethenyl]-1-benzo-thiophen-4-ol-4-O-phospohate [ST2495]
- IC50 ([1]; NCI-H460, 24 h exposure, 48 h recovery, SRB, read-out: IC50 ± SE): 620 ± 65 nM
- anticancer activity (summary in words) ([2]; NCI-H460 in nude mice, i.p., p.o. and i.v. routes): proved active with all the administration routes
- % BWL [2, 15]: 0%
- Mortality [2, 15]: 0/8
- % TVI ([2]; i.p. 30 mg/kg twice/day, qd5x/w, day 15 after tumor inoculation): 75** %
- % TVI ([2]; i.p. 30 mg/kg twice/day, qd5x/w, day 22 after tumor inoculation): 72** %
- % BWL [2, 16]: 4%
- Mortality [2, 16]: 0/8
- % TVI ([2]; i.p. 30 mg/kg, qd5x/w once a day, day 15 after tumor inoculation): 32** %
- % TVI ([2]; i.p. 30 mg/kg, qd5x/w once a day, day 22 after tumor inoculation): 38* %
- % BWL [2, 17]: 1%
- Mortality [2, 17]: 0/8
- % TVI ([2]; i.v. 60 mg/kg, q2dx6 day 4 to 16, day 15 after tumor inoculation): 84** %
- % TVI ([2]; i.v. 60 mg/kg, q2dx6 day 4 to 16, day 22 after tumor inoculation): 73** %
- % BWL [2, 18]: 0%
- Mortality [2, 18]: 0/8
- % TVI ([2]; i.v. 90 mg/kg, q2dx6 day 4 to 16, day 15 after tumor inoculation): 81** %
- % TVI ([2]; i.v. 90 mg/kg, q2dx6 day 4 to 16, day 22 after tumor inoculation): 62** %
- % BWL [2, 19]: 0%
- Mortality [2, 19]: 0/8
- % TVI ([2]; p.o. 30 mg/kg twice/day, qd5x/w, day 15 after tumor inoculation): 42** %
- % TVI ([2]; p.o. 30 mg/kg twice/day, qd5x/w, day 22 after tumor inoculation): 30* %
- % BWL [2, 20]: 1%
- Mortality [2, 20]: 0/8
- % TVI ([2]; p.o. 60 mg/kg twice/day, qd5x/w, day 15 after tumor inoculation): 79** %
- % TVI ([2]; p.o. 60 mg/kg twice/day, qd5x/w, day 22 after tumor inoculation): 67** %
- IC50 ([3]; MESSA, 24 h exposure, 48 h recovery, SRB): 1420 ± 49 nM
- IC50 ([5]; A2780, 24 h exposure, 48 h recovery, SRB, read-out: IC50 ± SE): 500 ± 20 nM
- IC50 ([6]; BMEC, 24 h exposure, 48 h recovery, SRB): 640 ± 40 nM
- IC50 (MeWo human melanoma; [21]): 830 ± 0.13 nM
- IC50 [7, 21]: 83 ± 2.06 nM
- IC50 ([8]; HT29, 24 h exposure, 48 h recovery, SRB, read-out: IC50 ± SE): > 10000 nM
- IC50 ([9]; HCT-116, 24 h exposure, 48 h recovery, SRB, read-out: IC50 ± SE): 3000 ± 102 nM
- IC50 ([10]; B16/BL6, 24 h exposure, 48 h recovery, SRB, read-out: IC50 ± SE): > 10000 nM
- IC50 ([11]; MCF-7, 24 h exposure, 48 h recovery, SRB, read-out: IC50 ± SE): 693 ± 21 nM
